Reference: patent US7713696B2, “Genetic markers for prognosis of antifolate treatment efficacy” (Academisch Zeikenhuis Leiden H.O.D.N. Lumc, priority 2006, dated 2010)

What was measured:
[1] = test system: Rheumatoid arthritis (RA) patients; conditions: literature refs 7-9; cited from earlier work
[2] = test system: recent-onset RA patients; test: Clinical response to methotrexate monotherapy (DAS) in genotyped patients of the BeSt trial; type: in vivo, human; conditions: for Good clinical response at six months, number of patients / Good clinical response at six months, percentage of patients: DAS≦2.4
Text: The 247 patients enrolled in the study was a sub-cohort of 508 patients participating in the BeSt trial (25). Inclusion criteria for this trial were fulfilment of the American College of Rheumatology (ACR) 1987 criteria, age of 18 years or older, a disease duration of less than 2 years. All patients had to have an active disease defined as ≧6/66 swollen joints and ≧6/68 tender joints and either an ESR ≧28 mm/hr or a Visual Analogue Scale (VAS) for global health ≦20 mm (on a scale of 0-100, 0=worst, 100=best).
The BeSt trial is a randomized, multi-centre, single-blinded, clinical study comparing the clinical efficacy of four different treatment strategies in early rheumatoid arthritis; sequential monotherapy (n=126 starting with methotrexate), step-up to combination therapy with sulphasalazine (n=121 starting with methotrexate), initial combination therapy with methotrexate, sulphasalazine and a high tapered dose of prednisolone (n=133) or initial biologic therapy with infliximab and methotrexate (n=128). In the present study, only patients allocated to initial single use of methotrexate were selected (n=247).
The primary objective of treatment in the BeSt study was achieving good clinical response as defined by the DAS≦2.4 (26-28). The DAS is a validated composite outcome measure consisting of the Ritchie articular index (RAI), the number of swollen joints (SJC, out of 44), general well being as indicated by the patient on a visual analogue scale (VAS), and the Erythrocyte Sedimentation Rate (ESR). A research nurse who remained blinded for the allocated treatment group scored the DAS every three months.
All selected patients started with oral methotrexate 7.5 mg weekly, increased to 15 mg weekly after 4 weeks, combined with folic acid (1 mg per day). In case of insufficient clinical response at three months of follow-up (DAS>2.4), the dosage was increased stepwise to 25 mg weekly, either orally or parenterally as decided by the rheumatologist. If the clinical response remained insufficient with methotrexate 25 mg weekly, patients were treated according to the next step of the BeSt protocol; patients with methotrexate sequential monotherapy switched to sulphasalazine 1000 mg twice daily; patients with initial step-up combination therapy, sulphasalazine 1000 mg twice daily was added to methotrexate. Concomitant therapies with nonsteroidal anti-inflammatory drugs (NSAIDs), as well as intra-articular injections with corticosteroids, were allowed for all treatment groups. For current analysis, clinical data for the first six months of follow-up were used, representing methotrexate treatment only.
“Responders” were defined as patients with DAS ≦2.4 (good clinical response) based on EULAR response criteria (26-28) and ‘non-responders ’ as patients with DAS >2.4 at six months of follow up.
Differences in baseline characteristics were analysed by Student's t-test for continuous variables or Chi-square test for dichotomous variables. Differences in genotype distribution for response and toxicity were tested by 3 by 2 cross tabs for each genotype, and by 2 by 2 cross tabs for carriers versus non-carriers analysis with the two-sided Chi-square test. We used binary logistic analysis in case of differences in genotype distribution, to calculate odds ratios for achieving good response or experiencing adverse drug events. Age and gender were identified as possible confounders and were used as covariates in all regression analyses. The primary efficacy endpoint was good clinical response at six months (DAS≦2.4). DAS good clinical response status required patients to be present at a given time point; no values were carried forward. Secondary endpoints were good clinical improvement defined as change in DAS>1.2 (ΔDAS>1.2) and moderate clinical improvement defined as change in DAS>0.6 (ΔDAS>0.6). […]

CN(Cc1cnc2nc(N)nc(N)c2n1)c1ccc(C(=O)N[C@@H](CCC(=O)O)C(=O)O)cc1 [methotrexate]
patients showing good clinical response [1]: about 40% | Good clinical response, Methotrexate 15 mg weekly, number of responders/patients ([2]; AMPD1 CC genotype, six months): 25/36 | Good clinical response, Methotrexate 15 mg weekly, percentage ([2]; AMPD1 CC genotype, six months): (69%) | Good clinical response, Methotrexate 25 mg weekly, number of responders/patients ([2]; AMPD1 CC genotype, six months): 30/98 | Good clinical response, Methotrexate 25 mg weekly, percentage ([2]; AMPD1 CC genotype, six months): (31%) | Good clinical response at six months, number of patients ([2]; AMPD1 CC genotype): 57 | Good clinical response at six months, percentage of patients ([2]; AMPD1 CC genotype): (38%) | good clinical response percentage at 6 months ([2]; AMPD1 CC genotyped patients): 42% | Good clinical response, Methotrexate 15 mg weekly, number of responders/patients ([2]; AMPD1 CT genotype, six months): 15/15 | Good clinical response, Methotrexate 15 mg weekly, percentage ([2]; AMPD1 CT genotype, six months): (100%) | Good clinical response, Methotrexate 25 mg weekly, number of responders/patients ([2]; AMPD1 CT genotype, six months): 13/29 | Good clinical response, Methotrexate 25 mg weekly, percentage ([2]; AMPD1 CT genotype, six months): (45%) | Good clinical response at six months, number of patients ([2]; AMPD1 CT genotype): 28 | Good clinical response at six months, percentage of patients ([2]; AMPD1 CT genotype): (56%) | percentage of good clinical response at six months ([2]; AMPD1 T-allele and ATIC CC (n=22)): 68 | percentage of good clinical response at six months ([2]; AMPD1 T-allele and ITPA CC (n=41)): 63 | times more likely to achieve good clinical response ([2]; AMPD1 T-allele carriers compared to AMPD1 CC, six months): 2.1 times | good clinical response percentage at 6 months ([2]; AMPD1 T-allelic carriers): 60% | Good clinical response, Methotrexate 15 mg weekly, number of responders/patients ([2]; AMPD1 TT genotype, six months): 1/1 | Good clinical response, Methotrexate 15 mg weekly, percentage ([2]; AMPD1 TT genotype, six months): (100%) | Good clinical response, Methotrexate 25 mg weekly, number of responders/patients ([2]; AMPD1 TT genotype, six months): 0/2 | Good clinical response, Methotrexate 25 mg weekly, percentage ([2]; AMPD1 TT genotype, six months): (0%) | Good clinical response at six months, number of patients ([2]; AMPD1 TT genotype): 1 | Good clinical response at six months, percentage of patients ([2]; AMPD1 TT genotype): (33%) | percentage of good clinical response at six months ([2]; ATIC CC and ITPA CC (n=82)): 56 | patients in remission (DAS <1.6) at one-year of follow-up ([2]; ATIC CC genotype (n=97)): 35% | Good clinical response, Methotrexate 15 mg weekly, number of responders/patients ([2]; ATIC CC genotype, six months): 22/25 | Good clinical response, Methotrexate 15 mg weekly, percentage ([2]; ATIC CC genotype, six months): (88%) | Good clinical response, Methotrexate 25 mg weekly, number of responders/patients ([2]; ATIC CC genotype, six months): 28/61 | Good clinical response, Methotrexate 25 mg weekly, percentage ([2]; ATIC CC genotype, six months): (46%) | Good clinical response at six months, number of patients ([2]; ATIC CC genotype): 51 | Good clinical response at six months, percentage of patients ([2]; ATIC CC genotype): (53%) | good clinical response percentage at 6 months ([2]; ATIC CC patients): 58% | Good clinical response, Methotrexate 15 mg weekly, number of responders/patients ([2]; ATIC CG genotype, six months): 15/22 | Good clinical response, Methotrexate 15 mg weekly, percentage ([2]; ATIC CG genotype, six months): (68%) | Good clinical response, Methotrexate 25 mg weekly, number of responders/patients ([2]; ATIC CG genotype, six months): 14/60 | Good clinical response, Methotrexate 25 mg weekly, percentage ([2]; ATIC CG genotype, six months): (23%) | Good clinical response at six months, number of patients ([2]; ATIC CG genotype): 30 | Good clinical response at six months, percentage of patients ([2]; ATIC CG genotype): (33%) | good clinical response percentage at 6 months ([2]; ATIC G-allelic carriers): 37% | Good clinical response, Methotrexate 15 mg weekly, number of responders/patients ([2]; ATIC GG genotype, six months): 4/5 | Good clinical response, Methotrexate 15 mg weekly, percentage ([2]; ATIC GG genotype, six months): (80%) | Good clinical response, Methotrexate 25 mg weekly, number of responders/patients ([2]; ATIC GG genotype, six months): 2/9 | Good clinical response, Methotrexate 25 mg weekly, percentage ([2]; ATIC GG genotype, six months): (22%) | Good clinical response at six months, number of patients ([2]; ATIC GG genotype): 6 | Good clinical response at six months, percentage of patients ([2]; ATIC GG genotype): (38%) | good clinical response percentage at 6 months ([2]; ITPA A-allelic carriers): 26% | Good clinical response, Methotrexate 15 mg weekly, number of responders/patients ([2]; ITPA CA genotype, six months): 3/5 | Good clinical response, Methotrexate 15 mg weekly, percentage ([2]; ITPA CA genotype, six months): (60%) | Good clinical response, Methotrexate 25 mg weekly, number of responders/patients ([2]; ITPA CA genotype, six months): 4/22 | Good clinical response, Methotrexate 25 mg weekly, percentage ([2]; ITPA CA genotype, six months): (18%) | Good clinical response at six months, number of patients ([2]; ITPA CA genotype): 7 | Good clinical response at six months, percentage of patients ([2]; ITPA CA genotype): (23%) | Good clinical response, Methotrexate 15 mg weekly, number of responders/patients ([2]; ITPA CC genotype, six months): 38/47 | Good clinical response, Methotrexate 15 mg weekly, percentage ([2]; ITPA CC genotype, six months): (81%) | Good clinical response, Methotrexate 25 mg weekly, number of responders/patients ([2]; ITPA CC genotype, six months): 39/107 | Good clinical response, Methotrexate 25 mg weekly, percentage ([2]; ITPA CC genotype, six months): (36%) | Good clinical response at six months, number of patients ([2]; ITPA CC genotype): 79 | Good clinical response at six months, percentage of patients ([2]; ITPA CC genotype): (45%) | good clinical response percentage at 6 months ([2]; ITPA CC genotyped): 50% | percentage responders (DAS≦2.4) at six months ([2]; overall population): 47% | response rate at six months ([2]; patients carrying all the favourable genotypes (n=16)): 88% | odds ratio for achieving good clinical response ([2]; patients carrying all the favourable genotypes (n=16), logistic regression): 27.8 | response rate at six months ([2]; patients carrying all three unfavourable genotypes (n=10)): 10%
